Test results from ChEMBL document CHEMBL1201862, “PubChem BioAssay data set” (2004).
Values joined by “and” are separate entries in the source; they are usually repeats but may differ in a detail not shown here. Equal entries are not always repeated.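 Each compound was tested at five concentrations against cells in 96-well plates for 48 hours. At the GI50, growth is halved.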 Active and inactive are the calls of the source. No stated cut-off is given here; in the data, active = GI50 up to about 1.1 µM and inactive = higher.

What was measured:
Assay in all cases: NCI-60 cell line screen, 48 h
UACC-257 = test system: UACC-257
SNB-75 = test system: SNB-75
EKVX = test system: EKVX
OVCAR-8 = test system: OVCAR-8
HOP-62 = test system: HOP-62
U-251 = test system: U-251
SK-OV-3 = test system: SK-OV-3
RPMI-8226 = test system: RPMI-8226
UACC-62 = test system: UACC-62
K562 = test system: K562
SN12C = test system: SN12C
HCT-116 = test system: HCT-116
TK-10 = test system: TK-10
NCI-H460 = test system: NCI-H460
NCI-H522 = test system: NCI-H522
SK-MEL-2 = test system: SK-MEL-2
ACHN = test system: ACHN

Q: Which GI50 (UACC-257) does the source give for `CC(=O)N1c2ccccc2N(C(C)=O)C1c1ccc(C2N(C(C)=O)c3ccccc3N2C(C)=O)[nH]1` here?
A: The GI50 was > 100 µM (inactive).

Q: And the GI50 (SNB-75)?
A: The GI50 was > 100 µM (inactive).

Q: And the GI50 (EKVX)?
A: The GI50 was > 100 µM (inactive).

Q: And the GI50 (OVCAR-8)?
A: Its GI50 is > 100 µM (inactive).

Q: And the GI50 (HOP-62)?
A: Its GI50 is > 100 µM (inactive).

Q: And the GI50 (U-251)?
A: Its GI50 is > 100 µM (inactive).

Q: What about the GI50 (SK-OV-3) of the same compound?
A: The GI50 was > 100 µM (inactive).

Q: And the GI50 (RPMI-8226)?
A: Its GI50 is > 100 µM (inactive).

Q: What about the GI50 (UACC-62) of the same compound?
A: Its GI50 is > 100 µM (inactive).

Q: What about the GI50 (K562) of the same compound?
A: Its GI50 is > 100 µM (inactive).

Q: What about the GI50 (SN12C) of the same compound?
A: The GI50 was > 100 µM (inactive).

Q: What about the GI50 (HCT-116) of the same compound?
A: The GI50 was > 100 µM (inactive).

Q: What about the GI50 (TK-10) of the same compound?
A: The GI50 was > 100 µM (inactive).

Q: And the GI50 (NCI-H460)?
A: The GI50 was > 100 µM (inactive).

Q: And the GI50 (NCI-H522)?
A: Its GI50 is > 100 µM (inactive).

Q: Which GI50 (UACC-257) does the source give for `Cc1ccc(S(=O)(=O)N/N=C/c2oc(-c3ccncc3)c(-c3ccncc3)c2[N+](=O)[O-])cc1` here?
A: Its GI50 is > 100 µM (inactive).

Q: What about the GI50 (SNB-75) of the same compound?
A: The GI50 was > 100 µM (inactive).

Q: And the GI50 (EKVX)?
A: The GI50 was > 100 µM (inactive).

Q: What about the GI50 (OVCAR-8) of the same compound?
A: The GI50 was > 100 µM (inactive).

Q: And the GI50 (HOP-62)?
A: The GI50 was > 100 µM (inactive).

Q: What about the GI50 (U-251) of the same compound?
A: The GI50 was > 100 µM (inactive).

Q: And the GI50 (SK-MEL-2)?
A: The GI50 was > 100 µM (inactive).

Q: And the GI50 (SK-OV-3)?
A: The GI50 was > 100 µM (inactive).

Q: What about the GI50 (UACC-62) of the same compound?
A: The GI50 was > 100 µM (inactive).

Q: And the GI50 (K562)?
A: Its GI50 is > 100 µM (inactive).

Q: What about the GI50 (SN12C) of the same compound?
A: Its GI50 is > 100 µM (inactive).

Q: And the GI50 (HCT-116)?
A: The GI50 was > 100 µM (inactive).

Q: And the GI50 (ACHN)?
A: Its GI50 is > 100 µM (inactive).

Q: What about the GI50 (TK-10) of the same compound?
A: The GI50 was > 100 µM (inactive).

Q: What about the GI50 (NCI-H460) of the same compound?
A: The GI50 was > 100 µM (inactive).

Q: What about the GI50 (NCI-H522) of the same compound?
A: Its GI50 is > 100 µM (inactive).

Q: What does the source list for `CCN1C(=O)C(=CN)C(=O)N(CC)C1=O`?
A: GI50 (UACC-257): > 100 µM (inactive); GI50 (SNB-75): 14.7 µM (inactive); GI50 (EKVX): > 100 µM (inactive); GI50 (OVCAR-8): > 100 µM (inactive); GI50 (HOP-62): > 100 µM (inactive); GI50 (U-251): 10 µM (inactive); GI50 (SK-MEL-2): > 100 µM (inactive); GI50 (SK-OV-3): > 100 µM (inactive); GI50 (UACC-62): > 100 µM (inactive); GI50 (K562): > 100 µM (inactive); GI50 (SN12C): > 100 µM (inactive); GI50 (HCT-116): > 100 µM (inactive); GI50 (ACHN): > 100 µM (inactive); GI50 (TK-10): 44.5 µM (inactive); GI50 (NCI-H460): > 100 µM (inactive); GI50 (NCI-H522): > 100 µM (inactive)

Q: Which results are given for `Clc1ccc(OCc2nnc3n2N=C(c2ccc(Br)cc2)CS3)cc1`?
A: GI50 (UACC-257): 23.1 µM (inactive); GI50 (SNB-75): 2.96 µM (inactive); GI50 (OVCAR-8): 15.9 µM (inactive); GI50 (HOP-62): 9.82 µM (inactive); GI50 (U-251): 30.7 µM (inactive); GI50 (SK-MEL-2): 23.4 µM (inactive); GI50 (SK-OV-3): 15 µM (inactive); GI50 (RPMI-8226): 30.3 µM (inactive); GI50 (UACC-62): 27.1 µM (inactive); GI50 (K562): > 100 µM (inactive); GI50 (SN12C): 52.8 µM (inactive); GI50 (HCT-116): 22.6 µM (inactive); GI50 (ACHN): 23.2 µM (inactive); GI50 (TK-10): 14.4 µM (inactive); GI50 (NCI-H460): 17.7 µM (inactive); GI50 (NCI-H522): 7.1 µM (inactive)

Q: `CC1CCC(C(C)(C)c2ccccc2)C(=O)C1` (stereo not given) was tested. Which GI50 (UACC-257) did it give?
A: Its GI50 is > 100 µM (inactive).

Q: What about the GI50 (SNB-75) of the same compound?
A: Its GI50 is > 100 µM (inactive).

Q: What about the GI50 (EKVX) of the same compound?
A: Its GI50 is > 100 µM (inactive).

Q: And the GI50 (OVCAR-8)?
A: The GI50 was > 100 µM (inactive).

Q: What about the GI50 (HOP-62) of the same compound?
A: The GI50 was > 100 µM (inactive).

Q: And the GI50 (U-251)?
A: Its GI50 is > 100 µM (inactive).

Q: And the GI50 (SK-MEL-2)?
A: The GI50 was > 100 µM (inactive).

Q: What about the GI50 (SK-OV-3) of the same compound?
A: The GI50 was > 100 µM (inactive).

Q: And the GI50 (RPMI-8226)?
A: Its GI50 is 95.3 µM (inactive).

Q: What about the GI50 (UACC-62) of the same compound?
A: Its GI50 is > 100 µM (inactive).

Q: What about the GI50 (K562) of the same compound?
A: Its GI50 is > 100 µM (inactive).

Q: And the GI50 (SN12C)?
A: Its GI50 is > 100 µM (inactive).

Q: What about the GI50 (HCT-116) of the same compound?
A: Its GI50 is > 100 µM (inactive).

Q: And the GI50 (ACHN)?
A: Its GI50 is > 100 µM (inactive).

Q: What about the GI50 (TK-10) of the same compound?
A: The GI50 was > 100 µM (inactive).

Q: And the GI50 (NCI-H460)?
A: The GI50 was > 100 µM (inactive).

Q: For `C=CCO[C@H]1CC[C@@]2(C)C(CC[C@]3(C)C2CC=C2[C@@H]4[C@@H](C)C(C)CC[C@]4(C(=O)O)CCC23C)C1(C)C` (stereo not given in full), which GI50 (UACC-257) is on record?
A: Its GI50 is 16.9 µM (inactive).

Q: What about the GI50 (SNB-75) of the same compound?
A: The GI50 was 15.6 µM (inactive).

Q: And the GI50 (EKVX)?
A: The GI50 was 21.2 µM (inactive).

Q: And the GI50 (OVCAR-8)?
A: Its GI50 is 18.4 µM (inactive).

Q: And the GI50 (HOP-62)?
A: Its GI50 is 22.1 µM (inactive).

Q: What about the GI50 (U-251) of the same compound?
A: The GI50 was 16.1 µM (inactive).

Q: And the GI50 (SK-OV-3)?
A: Its GI50 is 16.9 µM (inactive).

Q: And the GI50 (UACC-62)?
A: Its GI50 is 14.4 µM (inactive).

Q: What about the GI50 (K562) of the same compound?
A: Its GI50 is 14.3 µM (inactive).

Q: And the GI50 (SN12C)?
A: Its GI50 is 13.6 µM (inactive).

Q: And the GI50 (HCT-116)?
A: The GI50 was 12.7 µM (inactive).

Q: And the GI50 (ACHN)?
A: Its GI50 is 15.4 µM (inactive).

Q: What about the GI50 (TK-10) of the same compound?
A: Its GI50 is 18.2 µM (inactive).

Q: What about the GI50 (NCI-H460) of the same compound?
A: Its GI50 is 17.5 µM (inactive).

Q: What about the GI50 (NCI-H522) of the same compound?
A: The GI50 was 13.2 µM (inactive).

Q: With `CCCCCC(=O)N[C@H]1CCc2cc(OC)c(OC)c(OC)c2-c2ccc(SC)c(=O)cc21` as the compound, how does the GI50 (UACC-257) read?
A: The GI50 was < 0.01 µM (active).

Q: And the GI50 (SNB-75)?
A: The GI50 was 0.0195 µM (active).

Q: What about the GI50 (EKVX) of the same compound?
A: The GI50 was 0.0395 µM (active).

Q: And the GI50 (OVCAR-8)?
A: Its GI50 is 0.0253 µM (active).

Q: What about the GI50 (HOP-62) of the same compound?
A: The GI50 was 0.032 µM (active).

Q: What about the GI50 (U-251) of the same compound?
A: Its GI50 is 0.0224 µM (active).

Q: And the GI50 (SK-OV-3)?
A: Its GI50 is 0.0224 µM (active).

Q: And the GI50 (RPMI-8226)?
A: Its GI50 is 0.0181 µM (active).

Q: And the GI50 (UACC-62)?
A: The GI50 was 0.0204 µM (active).

Q: What about the GI50 (K562) of the same compound?
A: The GI50 was < 0.01 µM (active).

Q: What about the GI50 (SN12C) of the same compound?
A: Its GI50 is 0.0315 µM (active).

Q: And the GI50 (HCT-116)?
A: Its GI50 is 0.02 µM (active).

Q: What about the GI50 (ACHN) of the same compound?
A: The GI50 was 0.0374 µM (active).

Q: What about the GI50 (TK-10) of the same compound?
A: Its GI50 is 0.521 µM (active).

Q: What about the GI50 (NCI-H460) of the same compound?
A: The GI50 was < 0.01 µM (active).

Q: `COc1cccc2c1C(=O)c1c(O)c3c(c(O)c1C2=O)C[C@@](O)(C(=O)CO)C[C@@H]3OC1CC(N)C(O)C(C)O1` (stereo not given in full) was tested. Which GI50 (UACC-257) did it give?
A: Its GI50 is 215 nM (active) and 337 nM (active).

Q: What about the GI50 (EKVX) of the same compound?
A: Its GI50 is 547 nM (active) and 301 nM (active).

Q: And the GI50 (OVCAR-8)?
A: The GI50 was 200 nM (active) and 136 nM (active).

Q: What about the GI50 (U-251) of the same compound?
A: The GI50 was 44.9 nM (active) and 85.9 nM (active).

Q: And the GI50 (SK-MEL-2)?
A: Its GI50 is 252 nM (active) and 203 nM (active).

Q: What about the GI50 (SK-OV-3) of the same compound?
A: The GI50 was 0.414 µM (active).

Q: What about the GI50 (RPMI-8226) of the same compound?
A: The GI50 was 55.3 nM (active) and 43.9 nM (active).

Q: And the GI50 (SN12C)?
A: Its GI50 is 89.5 nM (active) and 170 nM (active).

Q: What about the GI50 (HCT-116) of the same compound?
A: Its GI50 is 66.5 nM (active) and 72.6 nM (active).

Q: And the GI50 (ACHN)?
A: The GI50 was 0.255 µM (active).

Q: What about the GI50 (TK-10) of the same compound?
A: Its GI50 is 726 nM (active) and 404 nM (active).
